The values below come from patent US11401271B2, “Fused heterocyclic compound, pyrazole-ring-containing fused heterocyclic compound, agricultural composition containing thereof, and method of using the composition” (SOUTH CHINA AGRICULTURAL UNIVERSITY, priority 2017, dated 2022).

Holding throughout (format): in vivo
Data set [1] has as its system Aphis craccivora. In words: whole plant or invertebrate. The settings on record: Aphis craccivora, 24 h, read-out: Aphis craccivora Mortality (%) 500 ppm. The procedure, abridged:
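Wingless adults feeding on bean sprouts were dipped with the sprouts for 5 s in 500 ppm compound in aqueous 0.05% Tween-80, air-dried, then held at 23° C. Dead aphids counted after 24 h, triplicate, with 0.05% Tween-80 as control. Mortality (%) = (control live − treated live)/control live × 100.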

Data set [2] deals with Solenopsis invicta. Description: whole plant or invertebrate. The settings on record: Solenopsis invicta, water test tube poison-feeding. A digest of the protocol:
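Fire ants fed compound by water test-tube poison-feeding at 100 ppm in aqueous 0.05% Tween-80/5% honey (from 10 g/L DMSO stock), kept at 25 °C. Live and dead ants counted at 24 and 72 h; mortality (%) calculated relative to live ants in the untreated control.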

The test system of data set [3] is Spodoptera exigua. Description: whole plant or invertebrate. The settings on record: Spodoptera exigua, 24 h, read-out: Spodoptera exigua Mortality (%) 500 ppm. A digest of the protocol:
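Cabbage leaf discs dipped 5 s in 500 ppm compound (0.05% Tween-80 aqueous), air-dried, fed to about 35 2nd-instar larvae at 28° C, three replicates. Deaths counted at 24 h; mortality corrected against Tween-80 control.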

The subject of data set [4] is Bombyx mori L. Description: Toxicity test on 2nd-instar larvae of Bombyx mori L., leaf immersion feeding method. The settings on record: 1000 ppm, 24 hours. How it is done:
(1) Toxicity Test on 2nd-Instar Larvae of Bombyx mori L.
Bombyx mori L. is an important economic insect sensitive to pesticides in an agricultural ecosystem, and is also one of the non-target organisms of environmental ecology listed in pesticide registration of China. The 2nd-instar larvae of Bombyx mori L. were used as test objects and tested by using a leaf immersion feeding method.
Operation process: Samples were weighed accurately, and respectively added with 200 μL of dimethyl sulfoxide to prepare 10 g/L mother liquor which was diluted into a concentration of 1000 ppm with an aqueous solution containing 0.05% of Tween-80 during the test. Young cotyledons of mulberries were collected, washed and air-dried, immersed in a liquid medicine, taken out after 5 seconds, naturally air-dryed, and then transferred into a clean vessel. About 35 2nd -instar larvae of Bombyx mori L. were put into the vessel and fed at a constant temperature of 25° C. Each concentration was repeated 3 times, and an aqueous solution containing 0.05% of Tween-80 was used as a control group. After being treated for 24 hours, a number of dead Bombyx mori L. was counted, and a mortality (%) was calculated according to a formula that mortality (%)=(number of live larvae in the control group −number of treated live larvae)/number of live larvae in the control group * 100%.

Data set [5] deals with Apis cernan. In words: Toxicity test on adult worker bees of Apis cernan, small beaker method. The settings on record: 500 ppm, 48 hours. As to the method: (2) Toxicity Test on Adult Worker Bees of Apis cernan.
Adult worker bees of Apis cernan having the same size were selected for test. The worker bees were collected from beekeeping boxes in the daystart of the test day and tested by using a small beaker method.
Operation process: A small amount of absorbent cotton was put into a 5 mL small beaker, 5 mL of a test liquid medicine (a concentration of 500 ppm) was dropped into the absorbent cotton, and stirred gently to make the absorbent cotton completely wet but not leached obviously, then the small beaker was put into a 500 mL large beaker, then 15 worker bees were put into the large beaker, and finally the large beaker was sealed with gauze. After treatment, the large beaker was placed in a dark room of an artificial climate box. After taking the medicine for 48 hours, a number of live and dead worker bees were investigated.

For data set [6], the system named is Plutella xylostella. In words: whole plant or invertebrate. The settings on record: Plutella xylostella, read-out: Plutella xylostella Mortality (%) 500 ppm. A digest of the protocol:
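Cabbage leaf discs dipped 5 s in compound at 500 ppm (0.05% Tween-80 aqueous), air-dried, fed to about 35 2nd-instar larvae at 28° C., triplicate. Dead larvae counted after 24 h; mortality (%) corrected against Tween-80 control.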

Where [7] appears, read: 24 h, read-out: Solenopsis invicta Mortality (%) 100 ppm 24 h, 100 ppm, 24 h.
Setting [8] is: 72 h, read-out: Solenopsis invicta Mortality (%) 100 ppm 72 h, 100 ppm, 72 h.

By mortality is commonly meant the share of the test organisms that died.

Molecules are shown by their SMILES. Read-outs that look alike come from different tables or passages of the source.

Turning to `CC1(C)Nc2c(C#N)c(SCc3ccccc3)nn2-c2cnc(F)nc21` [Compound A46], the mortality at 500 ppm came out at 100% in data set [1], 100% in data set [3] and 86% in data set [6]. Further, the mortality at 100 ppm in data set [2] (setting [7]) turned out to be 20%; in data set [2] (setting [8]), 87%. Moreover, the “Toxicity determination Bombyx mori L. Mortality (%)” value in data set [4] amounted to 7%. The “Toxicity determination Apis cernan Mortality (%)” value in data set [5] came out at 2%.
As for `N#Cc1cn2c(c1C#N)NC(C#N)(C#N)c1ccc(Br)cc1-2` [Compound B9], the mortality at 500 ppm in data set [1], in data set [3] and in data set [6] was 100% throughout. Also, the mortality at 100 ppm in data set [2] (setting [7]) came to 38%; in data set [2] (setting [8]), 100%. Besides, the “Toxicity determination Bombyx mori L. Mortality (%)” value in data set [4] worked out at 0%. Also, in data set [5], the “Toxicity determination Apis cernan Mortality (%)” value was found to be 5%.
For the molecule `CS(=O)(=O)Nc1ccc2c(c1)-n1cc(C#N)c(C#N)c1NC2(C#N)C#N` [Compound B10], the mortality at 500 ppm in data set [1] is 100%; in data set [3], 95%; in data set [6], 100%. Besides, the mortality at 100 ppm came to 30% in data set [2] (setting [7]) and 90% in data set [2] (setting [8]). Further, in data set [4], the “Toxicity determination Bombyx mori L. Mortality (%)” value is reported as 3%. Moreover, the “Toxicity determination Apis cernan Mortality (%)” value in data set [5] was 3%.
As to `COC(=O)/C=C/C1(CC#N)Nc2c([S+]([O-])C(F)(F)F)c(C#N)nn2-c2c(Cl)cc(C(F)(F)F)cc21` (centres unmarked) [Compound C58], the mortality at 500 ppm in data set [1], in data set [3] and in data set [6] was 100% each time. Further, the mortality at 100 ppm was 29% in data set [2] (setting [7]) and 98% in data set [2] (setting [8]). The “Toxicity determination Bombyx mori L. Mortality (%)” value in data set [4] was 4%. For the same molecule, in data set [5], the “Toxicity determination Apis cernan Mortality (%)” value is on record as 4%.
In the case of `COc1ccc(-c2cn3c(c2C#N)N(C)C(C#N)(C#N)c2ccc([N+](=O)[O-])cc2-3)cc1` [Compound B2], the mortality at 500 ppm in data set [1] came to 93%; in data set [3] it was 90%; in data set [6], 100%. Besides, the results for the mortality at 100 ppm in data set [2] (setting [7]) and in data set [2] (setting [8]) were 26% and 93%, respectively. Moreover, the “Toxicity determination Bombyx mori L. Mortality (%)” value in data set [4] amounted to 3%. The “Toxicity determination Apis cernan Mortality (%)” value in data set [5] was determined as 4%.
With `C=CC1(C(F)(F)F)Nc2cc(C#N)nn2-c2c(Cl)cc(C(F)(F)F)cc21` (centres unmarked) [Compound C3], the mortality at 500 ppm in data set [1], in data set [3] and in data set [6] was 100% each time. Further, the mortality at 100 ppm in data set [2] (setting [7]) came to 24%; in data set [2] (setting [8]) it was 100%. In addition, the “Toxicity determination Bombyx mori L. Mortality (%)” value in data set [4] came out at 12%. For the same molecule, the “Toxicity determination Apis cernan Mortality (%)” value in data set [5] worked out at 10%.
For the molecule `CSc1nn2c(c1S(=O)(=O)c1ccccc1)NC(C)(C)c1nc(F)ncc1-2` [Compound A45], the mortality at 500 ppm in data set [1], in data set [3] and in data set [6] was 100% throughout. For the same molecule, the mortality at 100 ppm in data set [2] (setting [7]) was 24%; in data set [2] (setting [8]) it was 100%. Moreover, the “Toxicity determination Bombyx mori L. Mortality (%)” value in data set [4] was 10%. The “Toxicity determination Apis cernan Mortality (%)” value in data set [5] is 11%.
As to `CC1(C)Nc2c(Br)c(C(=O)N3CCCCC3)nn2-c2ccccc21` [Compound A7], the mortality at 500 ppm in data set [1], in data set [3] and in data set [6] was 100% in each case. Moreover, the mortality at 100 ppm in data set [2] (setting [7]) is 20%; in data set [2] (setting [8]), 100%. The “Toxicity determination Bombyx mori L. Mortality (%)” value in data set [4] turned out to be 6%. In addition, the “Toxicity determination Apis cernan Mortality (%)” value in data set [5] is 6%.
With `C=CC1Nc2cc(C#N)nn2-c2c(Cl)cc(C(F)(F)F)cc21` (centres unmarked) [Compound C4], the results for the mortality at 500 ppm in data set [1], in data set [3] and in data set [6] were 100%, 76% and 86%, respectively. In addition, the mortality at 100 ppm was found to be 20% in data set [2] (setting [7]) and 87% in data set [2] (setting [8]). Also, the “Toxicity determination Bombyx mori L. Mortality (%)” value in data set [4] is reported as 3%. Further, in data set [5], the “Toxicity determination Apis cernan Mortality (%)” value worked out at 0%.
With `Nc1ccc2c(c1)-n1nc(C(F)(F)F)c(-c3ccc(F)cc3)c1NC2(C(F)(F)F)C(F)(F)F` [Compound A12], the mortality at 500 ppm in data set [1], in data set [3] and in data set [6] was 100% each time. In addition, the figures for the mortality at 100 ppm in data set [2] (setting [7]) and in data set [2] (setting [8]) were 44% and 100%, respectively. Besides, the “Toxicity determination Bombyx mori L. Mortality (%)” value in data set [4] turned out to be 13%. The “Toxicity determination Apis cernan Mortality (%)” value in data set [5] turned out to be 12%.
Regarding `CC1(C)Nc2cc(C#N)nn2-c2ccccc21` [Compound A1, 5,5-dimethyl-4,5-dihydropyrazole[1,5-α]quinazoline-2-cyano], the values for the mortality at 500 ppm in data set [1], in data set [3] and in data set [6] were 100%, 90% and 95%, respectively. Also, the mortality at 100 ppm in data set [2] (setting [7]) came to 20%; in data set [2] (setting [8]) it was 87%. For the same molecule, the “Toxicity determination Bombyx mori L. Mortality (%)” value in data set [4] was found to be 9%. The “Toxicity determination Apis cernan Mortality (%)” value in data set [5] worked out at 12%.
Regarding `N#Cc1nn2c(c1[S+]([O-])C(F)(F)F)NC(CC(F)(F)F)(C(O)CO)c1cc(C(F)(F)F)cc(Cl)c1-2` (centres unmarked) [Compound C56], the mortality at 500 ppm was 91% in data set [1], 87% in data set [3] and 82% in data set [6]. Further, the mortality at 100 ppm is 27% in data set [2] (setting [7]) and 80% in data set [2] (setting [8]). Further, in data set [4], the “Toxicity determination Bombyx mori L. Mortality (%)” value is reported as 6%. Also, the “Toxicity determination Apis cernan Mortality (%)” value in data set [5] is recorded as 8%.
In the case of `COC(=O)C1(CC#N)Nc2c([S+]([O-])C(F)(F)F)c(C#N)nn2-c2c(Cl)cc(C(F)(F)F)cc21` (centres unmarked) [Compound C31], the mortality at 500 ppm in data set [1], in data set [3] and in data set [6] was 100% throughout. For the same molecule, the mortality at 100 ppm amounted to 34% in data set [2] (setting [7]) and 100% in data set [2] (setting [8]). Also, the “Toxicity determination Bombyx mori L. Mortality (%)” value in data set [4] is 3%. Further, the “Toxicity determination Apis cernan Mortality (%)” value in data set [5] was 8%.
For the molecule `CC[S+]([O-])c1c(C#N)nn2c1NC(CO)(CC#N)c1cc(C(F)(F)F)cc(Cl)c1-2` (centres unmarked) [Compound C25], the mortality at 500 ppm amounted to 86% in data set [1], 97% in data set [3] and 92% in data set [6]. In addition, the mortality at 100 ppm came to 25% in data set [2] (setting [7]) and 71% in data set [2] (setting [8]). Also, in data set [4], the “Toxicity determination Bombyx mori L. Mortality (%)” value is listed as 3%. Also, the “Toxicity determination Apis cernan Mortality (%)” value in data set [5] came out at 0%.
`N#CCC1(CO)Nc2c([S+]([O-])C(F)(F)F)c(C#N)nn2-c2c(Cl)cc(C(F)(F)F)cc21` (centres unmarked) [Compound C24]: the mortality at 500 ppm in data set [1], in data set [3] and in data set [6] was 100% throughout. The mortality at 100 ppm in data set [2] (setting [7]) is 36%; in data set [2] (setting [8]) it was 100%. Moreover, the “Toxicity determination Bombyx mori L. Mortality (%)” value in data set [4] amounted to 11%. For the same molecule, the “Toxicity determination Apis cernan Mortality (%)” value in data set [5] was 10%.
With `CN(C)CC1(CC#N)Nc2c([S+]([O-])C(F)(F)F)c(C#N)nn2-c2c(Cl)cc(C(F)(F)F)cc21` (centres unmarked) [Compound C29], the mortality at 500 ppm in data set [1] was 100%; in data set [3], 93%; in data set [6] it was 100%. In addition, the mortality at 100 ppm in data set [2] (setting [7]) came to 30%; in data set [2] (setting [8]) it was 100%. Further, the “Toxicity determination Bombyx mori L. Mortality (%)” value in data set [4] turned out to be 0%. Also, the “Toxicity determination Apis cernan Mortality (%)” value in data set [5] is listed as 4%.
As for `Nc1cc2n(n1)-c1cnccc1C(F)(CC(F)(F)F)N2` (centres unmarked) [Compound A36], the mortality at 500 ppm in data set [1], in data set [3] and in data set [6] was 100% in each case. For the same molecule, the mortality at 100 ppm came out at 44% in data set [2] (setting [7]) and 100% in data set [2] (setting [8]). In addition, the “Toxicity determination Bombyx mori L. Mortality (%)” value in data set [4] is on record as 3%. In data set [5], the “Toxicity determination Apis cernan Mortality (%)” value came to 0%.
